# Source: patent US20080072337A1, “Braf Expression in Zebrafish and Uses Thereof” (Children's Medical Center Corporation, priority 2004, published 2008)
# Tested on: zebrafish
# Test: Examination of DMBA treated zebrafish for melanoma
# Assay type: in vivo
# Settings: over 10,000 DMBA treated zebrafish examined; unpublished data of the applicants
compound,measurement,value
Cc1c2ccccc2c(C)c2c1ccc1ccccc12 [DMBA],melanoma identified in treated zebrafish,failed to identify a single melanoma
